This note sets out measurements from patent US20230055705A1, “SUBSTITUTED THIOPHENE CARBOXAMIDES AND DERIVATIVES THEREOF” (Bayer Aktiengesellschaft, priority 2019, published 2023).

In series [1] the test system is Pseudomonas syringae pv. tomato. In words: Pseudomonas syringae pv. tomato in vitro cell test. It counts as cell-based. The note with it: 20 ppm of active ingredient, 24 h incubation, read-out: efficacy (inhibition of bacteria growth). In short, it runs like this: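 Bacterial suspension pre-cultured and diluted to set OD in LB broth, incubated 24 h with compounds (DMSO, 1% final). Growth read spectrometrically; inhibition calculated from absorbance versus untreated control wells.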

For series [2], the system named is Colletotrichum lindemuthianum. In words: Colletotrichum lindemuthianum in vitro cell test. It counts as cell-based. The note with it: 144 h, 20 ppm of active ingredient, 6 days incubation, read-out: efficacy (inhibition of fungal growth). How it is done:
(§1) • Solvent: DMSO • Culture medium: 14.6 g anhydrous D-glucose (VWR), 7.1 g Mycological Peptone (Oxoid), 1.4 g granulated Yeast Extract (Merck), QSP 1 liter • Inoculum: spores suspension
(§2) Fungicides were solubilized in DMSO and the solution used to prepare the required range of concentrations. The final concentration of DMSO used in the assay was ≤[…]1%.
A spore suspension of C. lindemuthianum was prepared and diluted to the desired spore density.
Fungicides were evaluated for their ability to inhibit spores germination and mycelium growth in liquid culture assay. The compounds were added in the desired concentration to the culture medium with spores. After 6 days incubation, fungi-toxicity of compounds was determined by spectrometric measurement of mycelium growth. Inhibition of fungal growth was determined by comparing the absorbance values in wells containing the fungicides with the absorbance in control wells without fungicides.

Series [3] has as its system Uromyces appendiculatus. In words: In vivo preventive test on Uromyces appendiculatus (bean rust). The note with it: 240 h, 125 ppm of active ingredient, evaluated 10 days after inoculation, read-out: efficacy. Summed up: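 Young bean plants sprayed with compound in acetone/DMSO/Tween diluted in water, inoculated 72 h later with U. appendiculatus spore suspension. Held 24 h at 20 °C, 100% RH, then 9 days at 20 °C, 70-80% RH. Efficacy scored 10 days post-inoculation versus solvent-treated controls (0% = control, 100% = no disease).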

Series [4] concerns Peronospora parasitica. Nature of the series: In vivo preventive test on Peronospora parasitica (Crucifer downy mildew). The note with it: Hyaloperonospora parasitica, in Brassica oleracea, 120 h, cabbage, evaluated 5 days after inoculation, read-out: efficacy; for pest or weed control at 31 ppm: 31 ppm of active ingredient; for pest or weed control at 125 ppm: 125 ppm of active ingredient. In short, it runs like this: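 Young cabbage plants were sprayed with compound in acetone/DMSO/Tween diluted with water, then inoculated 72 h later with a Peronospora parasitica spore suspension. Plants were kept 5 days at 20 °C and 100% RH. Efficacy was scored with 0% equal to solvent-treated controls and 100% meaning no disease.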

Series [5] is described as follows: LogP by HPLC on reversed phase columns (EEC directive 79/831 Annex V.A8). It counts as physicochemical. The note with it: reversed phase HPLC columns. Summed up:
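Reversed-phase HPLC per EEC directive 79/831 Annex V.A8. Calibrated with straight-chain alkan-2-ones (C3–C16) of known LogP, LogP from retention times by linear interpolation between successive alkanones. Lambda-max taken from UV spectra (200–400 nm) at chromatographic peak maxima.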

Series [6] has as its system Alternaria alternata. Nature of the series: Alternaria alternata in vitro cell test. It counts as cell-based. The note with it: 120 h, 20 ppm of active ingredient, 5 days incubation, read-out: efficacy (inhibition of fungal growth). The protocol: as §1, §2
A spore suspension of A. alternata was prepared and diluted to the desired spore density.
Fungicides were evaluated for their ability to inhibit spore germination and mycelium growth in liquid culture assay. The compounds were added in the desired concentration to the culture medium with spores. After 5 days incubation, fungi-toxicity of compounds was determined by spectrometric measurement of mycelium growth. Inhibition of fungal growth was determined by comparing the absorbance values in wells containing the fungicides with the absorbance in control wells without fungicides.

Series [7] deals with salicylate responsive promoter sequence of the PR1 (pathogenesis-related protein I) gene (AT2G14610). Nature of the series: Induction of defense gene expression in Arabidopsis thaliana (PR1 promoter-GFP reporter plants). It counts as in vivo. The note with it: Arabidopsis thaliana, 72 h, 3rd day after spraying, mock treated leaves set as 1.00, read-out: relative fluorescence value; for fold induction at 75 ppm: 75 ppm of compound. In short, it runs like this:
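Transgenic A. thaliana carrying GFP under the salicylate-responsive PR1 promoter, grown five days, then sprayed with compounds. Whole-plant fluorescence imaged and quantified on day 3 post-spray, expressed relative to mock-treated leaf background set at 1.00.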

The subject of series [8] is Xanthomonas campestris pv. campestris. Nature of the series: Xanthomonas campestris pv. campestris in vitro cell test. It counts as cell-based. The note with it: 20 ppm of active ingredient, 24 h incubation, read-out: efficacy (inhibition of bacteria growth). In short, it runs like this: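 Bacteria from a liquid pre-culture, diluted to a set OD, were grown in LB broth with compound at the required concentrations (final DMSO ≤1%). After 24 h, growth was read spectrometrically. Inhibition was derived from absorbance versus compound-free controls.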

Series [9] has as its system Colletotrichum lindemuthianum. In words: In vivo preventive test on Colletotrichum lindemuthianum (Antrachnose on bean). The note with it: 144 h, 31 ppm of active ingredient, inoculation 72 h after spraying, evaluated 6 days after inoculation, read-out: efficacy. Summed up:
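Young bean plants sprayed preventively with compound in acetone/DMSO/Tween diluted in water, then spore-inoculated 72 h later. Incubation 24 h at 20° C./100% RH, then 5 days at 20° C./90% RH; scored 6 days post-inoculation as % efficacy (0% = solvent-treated control, 100% = no disease).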

Series [10] concerns Pseudomonas syringae pv. tomato. In words: In vivo preventive test on Pseudomonas syringae pv. tomato (bacterial speck on tomato). The note with it: 31 ppm of active ingredient, evaluated 5 or 6 days after inoculation, read-out: efficacy. In short, it runs like this: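 Young tomato plants sprayed with compound in acetone/DMSO/Tween diluted in water; solvent-only controls. Inoculated 72 h later by spraying leaves with bacterial suspension; 4 days saturated atmosphere then 1–2 days at 70–80% RH, 22 °C day/20 °C night. Efficacy scored 5–6 days post-inoculation, 0% = control, 100% = no disease.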

The subject of series [11] is young plants of cabbage. In words: Phytotoxicity observed in the in vivo preventive test on Xanthomonas campestris pv. campestris. The note with it: for phytotoxicity: 125 ppm. How it is done:
The young plants of cabbage were treated by spraying the active ingredient prepared as described above. Control plants were treated only with an aqueous solution of acetone/Dimethyl sulfoxide/Tween®.
After 72 hours, the plants were contaminated by spraying the leaves with an aqueous bacteria suspension of Xanthomonas campestris pv. campestris. The contaminated cabbage plants were incubated for 8 or 10 days at 27° C. at 95% relative humidity.
Compounds CMP1, CMP2, CMP3 and CMP4 were tested in an in vivo preventive test on Xanthomonas campestris pv. campestris (black rot on cabbage) in the same conditions as described in Example H.

Series [12] relates to young plants of cabbage. In words: Phytotoxicity observed in the in vivo preventive test on Peronospora parasitica. The note with it: for phytotoxicity: 500 ppm. The protocol: The tested active ingredients were prepared by homogenization in a mixture of acetone/Dimethyl sulfoxide/Tween®, and then diluted with water to obtain the desired active material concentration. The young plants of cabbage were treated by spraying the active ingredient prepared as described above. Control plants were treated only with an aqueous solution of acetone/Dimethyl sulfoxide/Tween®.
After 72 hours, the plants were contaminated by spraying the leaves with an aqueous suspension of Peronospora parasitica spores. The contaminated cabbage plants were incubated for 5 days at 20° C. and at 100% relative humidity.
Compounds CMP2 and CMP3 were tested in an in vivo preventive test on Peronospora parasitica (Crucifer downy mildew) in the same conditions as described in Example G.

Series [13] deals with Xanthomonas campestris pv. campestris. In words: In vivo preventive test on Xanthomonas campestris pv. campestris (black rot on cabbage). The note with it: 31 ppm of active ingredient, evaluated 8 or 10 days after inoculation, read-out: efficacy. In short, it runs like this: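 Young cabbage plants sprayed with compound in acetone/DMSO/Tween diluted in water; solvent-only controls. Leaves sprayed with bacterial suspension 72 h later, then held 8 or 10 days at 27° C and 95% relative humidity. Efficacy scored 8 or 10 days post-inoculation, 0% matching controls, 100% meaning no disease.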

Take `NC(=O)CNC(=O)c1sc(Cl)c(Cl)c1Cl` [I.066, N-(2-amino-2-oxoethyl)-3,4,5-trichlorothiophene-2-carboxamide]: the inhibition at 20 ppm in [1], in [2], in series [6] and in series [8] was no more than 30% throughout. In addition, the pest or weed control at 125 ppm in series [3] and in series [4] was 90 to 100% in each case. For the same compound, the pest or weed control at 31 ppm in series [4] is 90 to 100%; in series [9], 70 to 79%; in series [10], 80 to 89%. Moreover, the chromatographic logP turned out to be 1.89 in series [5] (given in the preparation examples, method not marked); 1.89 in series [5] (method [a]: LC-UV, in an acidic range, with 0.1% formic acid in water and acetonitrile as eluent (linear gradient from 10% to 95% acetonitrile)). For the same compound, the fold induction at 75 ppm in series [7] is greater than 2. Moreover, the fold induction at 300 ppm in [7] is greater than 2.

For the compound `COC(=O)[C@H](C)NC(=O)c1sc(Cl)c(Cl)c1Cl` [CMP2], in [11], the “phytotoxicity (in place of Efficacy (%) at 125 ppm)” value is listed as “* (No efficacy measured due to over 80% phytotoxicity observed)” and the phytotoxicity entry was “over 80%”. In series [12], the “phytotoxicity (in place of Efficacy (%) at 500 ppm)” value is recorded as “* (No efficacy measured due to over 80% phytotoxicity observed)” and the phytotoxicity entry is given as “over 80%”. Also, the pest or weed control at 31 ppm in series [13] is less than 40%.

In the case of `CCOC(=O)[C@H](C)NC(=O)c1sc(Cl)c(Cl)c1Cl` [CMP3], in [11], the “phytotoxicity (in place of Efficacy (%) at 125 ppm)” value is “* (No efficacy measured due to over 80% phytotoxicity observed)” and the phytotoxicity entry is on record as “over 80%”. Besides, in series [12], the “phytotoxicity (in place of Efficacy (%) at 500 ppm)” value is reported as “* (No efficacy measured due to over 80% phytotoxicity observed)” and the phytotoxicity entry is “over 80%”. In series [13], the pest or weed control at 31 ppm was 0%.

For `COC(=O)CC[C@H](NC(=O)c1sc(Cl)c(Cl)c1Cl)C(=O)OC` [I.139], the inhibition at 20 ppm in [1], in series [2], in [6] and in series [8] was no more than 30% throughout. Further, the pest or weed control at 125 ppm in series [3] and in series [4] was 90 to 100% each time. Moreover, the pest or weed control at 31 ppm fell in the range of 90 to 100% in [4], 70 to 79% in series [9] and 80 to 89% in series [10]. Moreover, the chromatographic logP in series [5] (method [a]: LC-UV, acidic range, 0.1% formic acid in water and acetonitrile as eluent (linear gradient 10% to 95% acetonitrile)) came out at 3.36. For the same compound, in series [7], the fold induction at 75 ppm was greater than 2. Also, in series [7], the fold induction at 300 ppm was greater than 2.

One may read the inhibition as how much of the control response was suppressed. One may read the chromatographic logP as lipophilicity estimated from chromatographic retention. Read a low chromatographic logP as lower lipophilicity.
